Earlier results, collected in US5756661A, “Pentaclethra macroloba derived substances having insecticide, agglutination and aminopeptidase inhibition activity” (Pioneer Hi-Bred International, Inc., priority 1996, dated 1998).

Tested on: aminopeptidases
Conditions: references 13, 1

SMILES	inhibition of the activity of several aminopeptidases
CC(C)C[C@@H](N)[C@H](O)C(=O)N[C@H](C(=O)N[C@H](C(=O)N[C@@H](CC(=O)O)C(=O)O)C(C)C)C(C)C [amastatin]	completely inhibit
CC(C)C[C@H](NC(=O)[C@@H](O)[C@H](N)Cc1ccccc1)C(=O)O [bestatin]	completely inhibit
